Data: patent publication US11980613B2, “Methods for reversing HIV latency using BAF complex modulating compounds” (priority 2018, dated 2024)
Entries after “also recorded” stand apart in the source; their conditions may differ.

What was measured:
[1] = tested on: latent HIV-1 in CD4+ T cells from c-ART treated HIV-1 infected patients; experiment: HIV latency reversal from patient samples (cell associated HIV Pol mRNA); format: cell-based, human
Description: 23. HIV latency reversal from patient samples: All patients were older than 18 years, c-ART treated for at least 3 years, and their viral loads were below 50 copies/ml for more than 12 months with no blips in the past two years. CD4+ T cells from aviremic HIV+ patients were isolated as described previously^55 with minor modifications. Briefly, frozen PBMCs were cultured in RPMI medium over-night to recover. Then next day CD4+ T cells were isolated twice (enriched CD4+ T cells were subjected to a second round of CD4+ T cell enrichment) and left for 6 hrs to recover. Three million cells were treated with DMSO, 10 μM BRD-K80443127, 200 nM Prostratin, 10 μM BRD-K80443127 and 200 nM prostratin, and αCD3/CD28 magnetic beads (at cell:bead ration 1:1) as a positive control in triplicate. After 24 hours cells were lysed in TRIreagent (Sigma), total RNA was isolated with Total RNA Zol-Out (A&A Biotechnology) kit and cDNA was synthetized using random primers and Superscript II Reverse Transcriptase (Life Technologies). Detection of cellular associated pol RNA was performed as described previously (Pol: For […] (SEQ ID NO:15), Rev-[…] (SEQ ID NO: 16))^55. This study was conducted in accordance with the ethical principles of the Declaration of Helsinki. HIV-1 infected patient volunteers were informed and provided signed consent to participate in the study. The study protocol was approved by The Netherlands Medical Ethics Committee (MEC-2012-583). cDNA generated from control and 10 μM BRD-K80443127 treated samples was used to assess expression of BAF target genes biomarker genes-p21 and C-MYC.

[2] = tested on: human primary CD4+ T cells; experiment: T cell activation markers CD25 and CD69; format: cell-based; details: 24 and 72 hours; two healthy donors
Description: 24. Activation markers, apoptosis and viability of primary CD4+ T cells: Activation markers, namely CD25 and CD69 were analyzed as described previously^55. Briefly, CD4+ T cells were treated with DMSO, compound, or PMA/Ionomycin for 24 and 72 hours. Cells were collected, washed with PBS and stained for 30 min at 4° C. with α-CD25-APC (17-0259-42, eBioscience) and α-CD69-FITC (11-0699-42, eBioscience). Following two washes with PBS, cells were fixed with 1% HCHO at 4° C. and analyzed by flow cytometry with Becton Dickinson Fortessa instrument. To determine percent of apoptotic cells after treatment cells were stimulated for 24 and 72 hours and stained with anti-AnnexinV-PE (BD Biosciences, cat. 556454) in the presence of 2.5 mM CaCl2 for 20 min at 4° C. Cells were analyzed by Becton Dickinson Fortessa flow cytometer. Data represents the average of six experiments performed on cells from different healthy donors. Viability of ex-vivo infected primary CD4+ cells was determined by flow cytometry on the basis of forward versus side scatter analysis. 25. FAIRE: FAIRE experiment was performed as described, with minor modifications^55. Eighteen hours prior to analysis, J-Lat 11.1 cells were treated with BAFi's where indicated. Cells were fixed for 10 min by adding formaldehyde to a final concentration of 1% at room temperature. Twenty million cells were used per FAIRE experiment. […]

`CO[C@H]1CN(C)C(=O)c2cc(NC(=O)OC(C)C)ccc2OC[C@H](C)N(Cc2ccc(-c3ccccn3)cc2)C[C@@H]1C` [BRD-K80443127] was tested, and the “cell associated HIV mRNA (Pol), response” value ([1]; Patient 1 (one patient), single agents, 24 hours) was “responded; also recorded: significant increase”, the “potentiation of prostratin activity” value ([1]; all three patients) was “significant potentiation of prostratin activity” and the “cell associated HIV-1 POL” value ([1]; patient 2 and 3, 24 hours) was “did not result in a significant increase”. For the same compound, the “CD25 and CD69 expression” value [2] was “no effect”.
